target: recombinant Mcl-1 (residues 172-327) (Homo sapiens (Human), UniProt Q07820); experiment: Fluorescence polarization anisotropy competition assay (FITC-Bak or FITC-Bim BH3 peptide) with Mcl-1; format: binding; conditions: Table 2; Ki bins given in nM; FITC-Bak or FITC-Bim peptide competition; Ki converted from IC50; read-out: Ki for Inhibition of Mcl-1
Sequence (Q07820 172-327): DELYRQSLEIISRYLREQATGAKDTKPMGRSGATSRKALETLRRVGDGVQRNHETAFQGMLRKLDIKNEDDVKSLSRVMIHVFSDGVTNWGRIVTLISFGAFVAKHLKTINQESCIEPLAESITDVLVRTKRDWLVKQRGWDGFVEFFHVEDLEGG

For `Cc1cc(OCCCc2c3n(c4c(-c5c(C)nn(C)c5C)c(Cl)ccc24)CCCN(c2cccc(C(=O)O)c2C)C3=O)cc(C)c1Cl` [I-96, 3-(8-chloro-11-(3-(4-chloro-3,5-dimethylphenoxy)propyl)-1-oxo-7-(1,3,5-trimethyl-1H-pyrazol-4-yl)-4,5-dihydro-1H-[1,4]diazepino[1,2-a]indol-2(3H)-yl)-2-methylbenzoic acid], which Ki is on record?
The Ki was under 50 nM.

Which Ki does the source give for `Cc1cc(C(=O)O)ccc1N1CCCn2c(c(CCCOc3cc(C)c(Cl)c(C)c3)c3ccc(Cl)c(-c4c(C)nn(C)c4C)c32)C1=O` [I-97, 4-(8-chloro-11-(3-(4-chloro-3,5-dimethylphenoxy)propyl)-1-oxo-7-(1,3,5-trimethyl-1H-pyrazol-4-yl)-4,5-dihydro-1H-[1,4]diazepino[1,2-a]indol-2(3H)-yl)-3-methylbenzoic acid] here?
Its Ki is under 50 nM.

For `Cc1ccc(N2CCCn3c(c(CCCOc4cc(C)c(Cl)c(C)c4)c4ccc(Cl)c(-c5c(C)nn(C)c5C)c43)C2=O)cc1C(=O)O` [I-98, 5-(8-chloro-11-(3-(4-chloro-3,5-dimethylphenoxy)propyl)-1-oxo-7-(1,3,5-trimethyl-1H-pyrazol-4-yl)-4,5-dihydro-1H-[1,4]diazepino[1,2-a]indol-2(3H)-yl)-2-methylbenzoic acid], which Ki is on record?
Its Ki is under 50 nM.

Which Ki does the source give for `Cc1cc(N2CCCn3c(c(CCCOc4cc(C)c(Cl)c(C)c4)c4ccc(Cl)c(-c5c(C)nn(C)c5C)c43)C2=O)ccc1C(=O)O` [I-99, 4-(8-chloro-11-(3-(4-chloro-3,5-dimethylphenoxy)propyl)-1-oxo-7-(1,3,5-trimethyl-1H-pyrazol-4-yl)-4,5-dihydro-1H-[1,4]diazepino[1,2-a]indol-2(3H)-yl)-2-methylbenzoic acid] here?
The Ki was under 50 nM.

Which Ki does the source give for `Cc1ccc(C(=O)O)cc1N1CCCn2c(c(CCCOc3cc(C)c(Cl)c(C)c3)c3ccc(Cl)c(-c4c(C)nn(C)c4C)c32)C1=O` [I-100, 3-(8-chloro-11-(3-(4-chloro-3,5-dimethylphenoxy)propyl)-1-oxo-7-(1,3,5-trimethyl-1H-pyrazol-4-yl)-4,5-dihydro-1H-[1,4]diazepino[1,2-a]indol-2(3H)-yl)-4-methylbenzoic acid] here?
Its Ki is under 50 nM.

For `Cc1cc(OCCCc2c3n(c4c(-c5c(C)nn(C)c5C)c(Cl)ccc24)CCCN(c2cccc(OC(F)(F)F)c2)C3=O)cc(C)c1Cl` [I-101, 8-chloro-11-(3-(4-chloro-3,5-dimethylphenoxy)propyl)-2-(3-(trifluoromethoxy)phenyl)-7-(1,3,5-trimethyl-1H-pyrazol-4-yl)-2,3,4,5-tetrahydro-1H-[1,4]diazepino[1,2-a]indol-1-one], which Ki is on record?
Its Ki is 301 to 500 nM.

For `Cc1cc(OCCCc2c3n(c4c(-c5c(C)nn(C)c5C)c(Cl)ccc24)CCCN(Cc2ccc(C(=O)O)cn2)C3=O)cc(C)c1Cl` [I-102, 6-((8-chloro-11-(3-(4-chloro-3,5-dimethylphenoxy)propyl)-1-oxo-7-(1,3,5-trimethyl-1H-pyrazol-4-yl)-4,5-dihydro-1H-[1,4]diazepino[1,2-a]indol-2(3H)-yl)methyl)nicotinic acid], which Ki is on record?
The Ki was under 50 nM.

With `Cc1cc(OCCCc2c3n(c4c(-c5c(C)nn(C)c5C)c(Cl)ccc24)CCCN(c2ccnc4c(C(=O)O)cccc24)C3=O)cc(C)c1Cl` [I-104, 4-(8-chloro-11-(3-(4-chloro-3,5-dimethylphenoxy)propyl)-1-oxo-7-(1,3,5-trimethyl-1H-pyrazol-4-yl)-4,5-dihydro-1H-[1,4]diazepino[1,2-a]indol-2(3H)-yl)quinoline-8-carboxylic acid] as the compound, how does the Ki read?
Its Ki is under 50 nM.

For `Cc1cc(OCCCc2c3n(c4c(-c5c(C)nn(C)c5C)c(Cl)ccc24)C[C@@H](C)NC3=O)cc(C)c1Cl` [I-109, (R)-7-chloro-10-(3-(4-chloro-3,5-dimethylphenoxy)propyl)-3-methyl-6-(1,3,5-trimethyl-1H-pyrazol-4-yl)-3,4-dihydropyrazino[1,2-a]indol-1(2H)-one], which Ki is on record?
Its Ki is under 50 nM.

For `Cc1cc(OCCCc2c3n(c4c(-c5c(C)nn(C)c5C)c(Cl)ccc24)CCC(C)NC3=O)cc(C)c1Cl` (stereo not shown) [I-114, 8-chloro-1-(3-(4-chloro-3,5-dimethylphenoxy)propyl)-3-methyl-7-(1,3,5-trimethyl-1H-pyrazol-4-yl)-2,3,4,5-tetrahydro-1H-[1,4]diazepino[1,2-a]indol-1-one], which Ki is on record?
Its Ki is under 50 nM.
